Measurements as given in article PMC7857580, “Substitutional landscape of a split fluorescent protein fragment using high-density peptide microarrays” (PLoS ONE, 2021).
Ends that are not written are not given here.

Molecular target: LOO10-GFP (Aequorea victoria, UniProt P42212, S30R/Y39N/F64L/S65T/F99S/N105T/Y145F/M153T/V163A/I171V, form not given)
Type: binding
Details: read-out: Kd (dissociation constant between s10 peptide and LOO10-GFP); 50 nM LOO10-GFP, 0-2500 nM peptide, assay buffer pH 8, overnight 4°C, read at 25°C; 390ex/506em (WT, H199Y) or 495ex/520em (T203Y, H199Y/T203Y); quadratic fit; 3 independent measurements
Experimental: Fluorescence of each sample was measured at 390/506 nm for T203 variants and at 495/520 nm for Y203 variants, at 25°C, excitation slit 12 nm, emission slit 20 nm and 10s integration time. The affinity experiments were performed in 3 independent replicas for each peptide variant. […] All fits were performed in OriginPro 2017.

LOO10-GFP, sequence (P42212 whole entry S30R/Y39N/F64L/S65T/F99S/N105T/Y145F/M153T/V163A/I171V, form open): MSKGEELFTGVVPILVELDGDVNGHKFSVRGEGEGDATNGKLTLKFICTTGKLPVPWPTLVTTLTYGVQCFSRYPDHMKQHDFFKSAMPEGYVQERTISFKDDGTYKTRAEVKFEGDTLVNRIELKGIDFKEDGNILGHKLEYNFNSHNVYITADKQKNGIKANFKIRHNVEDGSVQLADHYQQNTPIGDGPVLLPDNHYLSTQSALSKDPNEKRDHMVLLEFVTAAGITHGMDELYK

| Sequence | Kd [nM] |
| --- | --- |
| NHYLSTQTVLS [WT] | 280 ± 83 |
| NHYLSYQTVLS [T203Y] | 152 ± 47 |
| NYYLSTQTVLS [H199Y] | 53.4 ± 0.4 |
| NYYLSYQTVLS [H199Y/T203Y] | 32.6 ± 6.3 |
